Measurements from ChEMBL document CHEMBL1137279, “Synthesis of N1-arylidene-N2-quinolyl- and N2-acrydinylhydrazones as potent antimalarial agents active against CQ-resistant P. falciparum strains” (Bioorg Med Chem Lett, 2006).

Tests used:
[1] = Cytotoxicity against mouse WEHI cell line by MTT assay; type: cell-based; settings: WEHI cells, read-out: ED50 (the source's name)
Plasmodium falciparum [2] = experiment: Antimalarial activity against chloroquine-sensitive Plasmodium falciparum 3D7; type: functional, organism-based
Plasmodium falciparum [3] = experiment: Antimalarial activity against chloroquine-resistant Plasmodium falciparum K1; type: functional, organism-based
Plasmodium falciparum [4] = experiment: Antimalarial activity against chloroquine-sensitive Plasmodium falciparum D10; type: functional, organism-based
Plasmodium falciparum [5] = experiment: Antimalarial activity against chloroquine-resistant Plasmodium falciparum W2; type: functional, organism-based

SMILES	CC50 [1]	IC50 (Plasmodium falciparum [2])	IC50 (Plasmodium falciparum [3])	IC50 (Plasmodium falciparum [4])	IC50 (Plasmodium falciparum [5])
Clc1ccc2c(N/N=C/c3ccc(CN4CCCC4)cc3)ccnc2c1	19400 nM	19.1 nM	16.4 nM	28.8 nM	58.3 nM
COc1ccc(/C=N/Nc2ccnc3ccc(OC)cc23)cc1				99 nM	128 nM
COc1ccc2nc3cc(Cl)ccc3c(N/N=C/c3ncc[nH]3)c2c1	5100 nM	1 nM	4.5 nM	62.6 nM	30.8 nM
COc1ccc(/C=N/Nc2ccnc3cc4c(cc23)OCO4)cc1		155 nM	467 nM	210 nM	163 nM
CCN(CC)Cc1ccc(/C=N/Nc2ccnc3ccc(OC)cc23)cc1		11 nM	55.1 nM	39.2 nM	79 nM
COc1cccc2c(N/N=C/c3ccccc3)ccnc12		5700 nM		519 nM	254 nM
COc1ccc2nc3cc(Cl)ccc3c(N/N=C/c3ncc[nH]3)c2n1		283 nM	198 nM	72 nM	26.9 nM
COc1ccc2nccc(N/N=C/c3ccc(N(C)C)cc3)c2c1				83 nM	104 nM
COc1ccc2nc3cc(Cl)ccc3c(N/N=C/c3ccc(CN4CCCC4)cc3)c2c1		112 nM		97 nM	137 nM
COc1cccc2c(N/N=C/c3ccc(N(C)C)cc3)ccnc12				337 nM	356 nM
CCN(CC)CCCC(C)Nc1ccnc2cc(Cl)ccc12 (stereo not given) [CHLOROQUINE]	9700 nM				
